Like-named read-outs stand apart in the source and are kept apart here.
Columns and labels:
[1] = target: Human acetylcholinesterase (AChE; EC 3.1.1.7) (Homo sapiens, UniProt P22303); assay: modified Ellman assay with purified AChE, Lineweaver-Burk kinetics; format: biochemical
[2] = substrate: CC(=O)SCC[N+](C)(C)C; assay: Km from modified Ellman assay, Lineweaver-Burk (enzyme only); format: biochemical, Homo sapiens; settings: active site (substrate)
Excerpt: Km from modified Ellman assay, Lineweaver-Burk (enzyme only) on Human acetylcholinesterase (AChE; EC 3.1.1.7) | The reaction system contained acetylthiocholine (ACth) as the substrate

`NCCS(=O)(=O)O` [TA, Taurine] gave a Ki ([1]; read-out: Taurine 0.15 mM) of 274 ± 5.94 µM.

`CN(CC(=O)O)C(=N)N` [CR, Creatine] gave a Ki ([1]; read-out: Creatine 0.15 mM) of 199 ± 5.21 µM.

B1: Human acetylcholinesterase (AChE; EC 3.1.1.7) (Homo sapiens) (protein)
chain: EGREDAELLVTVRGGRLRGIRLKTPGGPVSAFLGIPFAEPPMGPRRFLPPEPKQPWSGVVDATTFQSVCYQYVDTLYPGFEGTEMWNPNRELSEDCLYLNVWTPYPRPTSPTPVLVWIYGGGFYSGASSLDVYDGRFLVQAERTVLVSMNYRVGAFGFLALPGSREAPGNVGLLDQRLALQWVQENVAAFGGDPTSVTLFGESAGAASVGMHLLSPPSRGLFHRAVLQSGAPNGPWATVGMGEARRRATQLAHLVGCPPGGTGGNDTELVACLRTRPAQVLVNHEWHVLPQESVFRFSFVPVVDGDFLSDTPEALINAGDFHGLQVLVGVVKDEGSYFLVYGAPGFSKDNESLISRAEFLAGVRVGVPQVSDLAAEAVVLHYTDWLHPEDPARLREALSDVVGDHNVVCPVAQLAGRLAAQGARVYAYVFEHRASTLSWPLWMGVPHGYEIEFIFGIPLDPSRNYTAEEKIFAQRLMRYWANFARTGDPNEPRDPKAPQWPPYTAGAQQYVSLDLRPLEVRRGLRAQACAFWNRFLPKLLSATDTLDEAERQWKAEFHRWSSYMVHWKNQFDHYSKQDRCSDL
Molecule B1 has a Km [2] of 1.73 ± 0.0147 µM and a Vmax [2] of 131 µM/min.

Reference: article PMC12691779, “Creatine and Taurine as Novel Competitive Inhibitors of Acetylcholinesterase: A Biochemical Basis for Nutritional Modulation of Brain Function” (International Journal of Molecular Sciences, 2025)
